The results in this text go back to paper PMC5713445, “Ergostane-Type Sterols from King Trumpet Mushroom (Pleurotus eryngii) and Their Inhibitory Effects on Aromatase” (International Journal of Molecular Sciences, 2017).

The target of the experiment is T1, human recombinant aromatase (Homo sapiens, UniProt P11511).
T1 sequence (P11511 1-503): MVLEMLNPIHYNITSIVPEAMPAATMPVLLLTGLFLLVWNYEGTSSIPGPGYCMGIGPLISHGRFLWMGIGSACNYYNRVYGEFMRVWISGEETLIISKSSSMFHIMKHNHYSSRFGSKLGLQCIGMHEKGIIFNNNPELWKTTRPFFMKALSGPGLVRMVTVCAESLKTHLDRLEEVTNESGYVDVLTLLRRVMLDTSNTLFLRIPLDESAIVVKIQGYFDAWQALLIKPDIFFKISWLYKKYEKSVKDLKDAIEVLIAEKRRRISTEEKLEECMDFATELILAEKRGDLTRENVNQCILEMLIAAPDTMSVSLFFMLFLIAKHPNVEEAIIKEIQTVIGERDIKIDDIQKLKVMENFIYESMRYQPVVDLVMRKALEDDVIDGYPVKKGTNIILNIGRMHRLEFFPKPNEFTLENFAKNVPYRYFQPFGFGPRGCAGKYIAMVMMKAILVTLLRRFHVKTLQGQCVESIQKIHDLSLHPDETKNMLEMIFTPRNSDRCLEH
Put plainly: Inhibitory assay against human recombinant aromatase (Human CYP19 + P450 Reductase SUPERSOMES, dibenzylfluorescein). In kind it is biochemical. The conditions noted are these: for aromatase inhibitory activity (in words): tested at 10, 30 and 100 µM (4, 6: 1, 3 and 10 µM); for pIC50: three determinations. An excerpt: Each value represents the mean ± the standard error (S.E.) of three determinations.
Dibenzylfluorescein (DBF) and Human CYP19 + P450 Reductase SUPERSOMES (human recombinant aromatase) were obtained from BD Biosciences (Heidelberg, Germany). The physical data were obtained by the following instruments: a Yanagimoto micro-melting point apparatus for melting points (uncorrected); a JASCO DIP-1000 digital polarimeter for Optical rotations; a Perkin-Elmer 1720X FTIR spectrophotometer for IR spectra; an Agilent-NMR-vnmrs600 for the ^1H and ^13C NMR spectra (^1H: 600 MHz; ^13C: 150 MHz) in CDCl3 with tetramethylsilane as the internal standard; a Hitachi M-4000H double-focusing mass spectrometer for EIMS (70 eV). Column chromatography was carried out by Silica gel (70–230 mesh, Merck, Darmstadt, Germany) and silica gel 60 (230–400 mesh, Nacalai Tesque, Inc., Kyoto, Japan). HPLC was performed by the following systems; system I: Cosmosil 5SL-II column (25 cm × 20 mm i.d.) (Nacalai Tesque, Inc.), hexane/EtOAc (5:1), 8.0 mL/min, 35 °C; system II: Shimpack PREP-ODS (25 cm × 20 mm i.d.) (Shimadzu corp., Kyoto, Japan), MeOH, 8.0 mL/min, 35 °C; system III: Cosmosil 5C18-MS-II column (25 cm × 20 mm i.d.) (Nacalai Tesque, Inc.), MeOH/H2O (95:5), flow rate, 4.0 mL/min, 35 °C; system IV: Cosmosil 5C18-MS-II column, MeOH/H2O (9:1), 4.0 mL/min, 35 °C.
Inhibitory assay against human recombinant aromatase was performed as described previously.

pIC50: −log10 of the molar value.

In the case of “5α,6α-epoxyergost-8(14)-ene-3β,7α-diol [Compound 2]”, the “aromatase inhibitory activity (in words)” value was “weakly inhibited aromatase”.
As usually defined, the pIC50 is the IC50 on a negative log10 scale, so that one unit is a factor of ten. Take `CC(C)[C@@H](C)/C=C/[C@@H](C)[C@H]1CC=C2C3=C(CC[C@@]21C)[C@@]1(C)CC[C@H](O)C[C@@]12O[C@H]2[C@@H]3O` [Compound 1, (22E)-5α,6α-epoxyergosta-8,14,22-triene-3β,7β-diol]: the negative-log IC50 (pIC50) was 4.76.
Still for that read-out and setting: with `CC(C)[C@@H](C)/C=C/[C@@H](C)[C@H]1CC[C@H]2C3=CCC4C[C@@H](O)CC[C@]4(C)[C@H]3CC[C@]12C` (stereo partly drawn) [Compound 3, (22E)-Ergosta-7,22-dien-3β-ol] the figure was 4.18.
For `CC(C)[C@@H](C)/C=C/[C@@H](C)[C@H]1CC[C@H]2C3=CC=C4C[C@@H](O)CC[C@]4(C)[C@H]3CC[C@]12C` [Compound 4, (22E)-ergosta-5,7,22-trien-3β-ol], the “aromatase inhibitory activity (in words)” value is recorded as “comparable aromatase inhibitory activities to aminoglutethimide” and the negative logarithm of the IC50 (pIC50) was 5.09.
Regarding `CC(C)[C@@H](C)/C=C/[C@@H](C)[C@H]1CC[C@H]2c3ccc4c(c3CC[C@]12C)CC[C@H](O)C4` [Compound 5, (22E)-19-norergosta-5,7,9,22-tetraen-3β-ol], the pIC50 is 4.47.
Take `CO[C@@H]1C=C2[C@@H]3CC[C@H]([C@H](C)/C=C/[C@H](C)C(C)C)[C@@]3(C)CC[C@@H]2[C@@]2(C)CC[C@H](O)C[C@]12O` [Compound 6, (22E)-6β-methoxyergosta-7,22-diene-3β,5α-diol]: the “aromatase inhibitory activity (in words)” value is on record as “comparable aromatase inhibitory activities to aminoglutethimide” and the negative-log IC50 (pIC50) is 5.55.
In the same order, the values of `CC(C)[C@@H](C)/C=C/[C@@H](C)[C@H]1CC[C@H]2C3=CC(=O)[C@@]4(O)C[C@@H](O)CC[C@]4(C)[C@@]3(O)CC[C@]12C` [Compound 7, (22E)-3β,5α,9α-trihydroxyergosta-7,22-dien-6-one] are “weakly inhibited aromatase” and less than 4.00.
In the same order, the values of `CC(C)[C@@H](C)/C=C/[C@@H](C)[C@H]1CC[C@H]2C3=CC(=O)[C@@]4(O)C[C@@H](O)CC[C@]4(C)[C@H]3CC[C@]12C` [Compound 8, (22E)-3β,5α-dihydroxyergosta-7,22-dien-6-one] are “weakly inhibited aromatase” and less than 4.00.
Taken in the same sequence, the figures for `CC(C)[C@@H](C)/C=C/[C@@H](C)[C@H]1CC[C@@H]2[C@]1(C)CC[C@H]1[C@]23C=C[C@]2(C[C@@H](O)CC[C@]12C)OO3` [Compound 9, ergosterol peroxide] were “weakly inhibited aromatase” and less than 4.00.
Regarding `CC(C)[C@@H](C)/C=C/[C@@H](C)[C@H]1CC[C@@H]2[C@]1(C)CC=C1[C@]23C=C[C@]2(C[C@@H](O)CC[C@]12C)OO3` [Compound 10, 9,11-dehydroergosterol peroxide], the negative logarithm of the IC50 (pIC50) was 4.49.
